≈ marks a conversion by molar mass, not a printed value. Read-outs that look alike come from different tables or passages of the source.

A word on the microsomal CLint: it is the rate of metabolic loss divided by the concentration. A higher microsomal CLint goes with faster metabolism. For orientation: Papp A→B means how fast a substance crosses the layer from the apical side. Low readings indicate slow passage, high ones fast passage. By clearance is commonly meant the volume of plasma or blood freed of the substance per unit of time. As a reminder, the solubility (kinetic) is solubility judged after dilution from a stock solution rather than from solid. Broadly, the solubility is the concentration that dissolves in the medium under given conditions. The pKa is the negative logarithm of the acid dissociation constant.

Series [1] can be described thus: in vitro. To be noted: human, microsomes.
Series [2] in a line: in vitro. To be noted: human, Caco-2, pH 7.4.
Series [3] deals with Human PKa (Homo sapiens, UniProt P03952). Kind of series: biochemical. The series is classed as biochemical.
Series [4] can be described thus: Dog pharmacokinetics. In kind it is in vivo, beagle dogs. To be noted: male, beagle, plasma, iv, 1 mg/kg.
Series [5] is described as follows: Rat pharmacokinetics. To be noted: male, Sprague-Dawley, plasma, iv, 1 mg/kg. In kind it is in vivo, Sprague-Dawley rats.
Series [6] in a line: physchem. To be noted: aqueous buffer, kinetic from dmso stock.
Series [7] concerns the target plasmin (Homo sapiens, UniProt P00747). Description: biochemical. To be noted: IC50 / off target protease selectivity.
The target in series [8] is T1, factor XIIa (Homo sapiens, UniProt P00748).
T1 sequence (P00748 373-615 limits assumed): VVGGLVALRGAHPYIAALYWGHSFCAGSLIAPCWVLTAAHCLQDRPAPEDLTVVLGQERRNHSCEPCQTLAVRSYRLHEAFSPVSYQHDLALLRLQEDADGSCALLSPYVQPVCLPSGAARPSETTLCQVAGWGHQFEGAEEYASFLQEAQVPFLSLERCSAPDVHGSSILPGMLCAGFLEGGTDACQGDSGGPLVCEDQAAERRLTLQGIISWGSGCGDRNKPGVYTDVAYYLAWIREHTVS
Description: biochemical. To be noted: IC50 / off target protease selectivity, FXIIa.

Series [9] can be described thus: Thermodynamic solubility in FaSSIF / FaSSGF. In kind it is physicochemical. To be noted: pH 6.5, solubility FaSSIF, theoretical concentration 1 mg/mL.
Series [10] deals with tissue kallikrein (KLK1) (Homo sapiens, UniProt P06870). Kind of series: biochemical. To be noted: IC50 / off target protease selectivity.
For series [11], the target named is thrombin (Homo sapiens, UniProt P00734). Description: biochemical. To be noted: IC50 / off target protease selectivity.
Series [12] deals with factor XIa (Homo sapiens, UniProt P03951). Kind of series: biochemical. To be noted: IC50 / off target protease selectivity, FXIa.
The subject of series [13] is bacterial mutagenicity. Kind of series: Non-GLP bacterial mutagenicity Ames test. In general terms: In the Ames test, an excess of revertant colonies over the control signals mutagenicity.
The target of series [14] is hERG channel (Homo sapiens, UniProt Q12809). Description: hERG whole-cell patch clamp. To be noted: highest level tested 33 μM. In general terms: The hERG channel carries a current that helps repolarise heart muscle cells.
Series [15] addresses factor Xa (Homo sapiens, UniProt P00742). To be noted: read-out: IC50 / off target protease selectivity, FXa.
The subject of series [16] is trypsin. To be noted: read-out: IC50 / off target protease selectivity, trypsin.
The subject of series [17] is panel of CYP450 enzymes. Description: CYP450 inhibition panel as a whole. To be noted: up to 25 μM.
Series [18] can be described thus: Human plasma protein binding. To be noted: % bound. In kind it is in vitro ADME.
Series [19] is described as follows: Measured pKa, PION UV-metric method. The series is classed as physicochemical.
Series [20] has as its target tryptase. Kind of series: Protease selectivity, fluorogenic substrate cleavage assay. In kind it is biochemical, human. To be noted: read-out: IC50 / off target protease selectivity, tryptase.

Sequence of Human PKa (P03952 391-638 limits assumed): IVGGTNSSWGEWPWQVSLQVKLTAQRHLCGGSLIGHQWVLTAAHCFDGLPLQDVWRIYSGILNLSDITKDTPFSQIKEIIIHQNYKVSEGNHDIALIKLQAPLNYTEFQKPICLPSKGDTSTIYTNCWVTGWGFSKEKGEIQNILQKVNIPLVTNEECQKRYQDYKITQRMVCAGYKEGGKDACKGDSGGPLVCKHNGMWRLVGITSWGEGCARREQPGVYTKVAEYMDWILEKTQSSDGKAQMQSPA
Sequence of Human PKa (P03952 20-390 partner limits assumed): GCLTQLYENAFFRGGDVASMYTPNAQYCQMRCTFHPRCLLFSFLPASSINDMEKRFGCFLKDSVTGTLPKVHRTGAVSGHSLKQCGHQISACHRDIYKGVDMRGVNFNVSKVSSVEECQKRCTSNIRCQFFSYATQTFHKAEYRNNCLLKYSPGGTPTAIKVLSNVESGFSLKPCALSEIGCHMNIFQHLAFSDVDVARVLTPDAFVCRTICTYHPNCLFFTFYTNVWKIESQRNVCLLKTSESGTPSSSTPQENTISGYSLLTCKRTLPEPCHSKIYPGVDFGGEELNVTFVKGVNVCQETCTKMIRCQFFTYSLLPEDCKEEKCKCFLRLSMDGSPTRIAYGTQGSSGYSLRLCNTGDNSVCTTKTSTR
Sequence of factor XIa (P03951 388-625 limits assumed): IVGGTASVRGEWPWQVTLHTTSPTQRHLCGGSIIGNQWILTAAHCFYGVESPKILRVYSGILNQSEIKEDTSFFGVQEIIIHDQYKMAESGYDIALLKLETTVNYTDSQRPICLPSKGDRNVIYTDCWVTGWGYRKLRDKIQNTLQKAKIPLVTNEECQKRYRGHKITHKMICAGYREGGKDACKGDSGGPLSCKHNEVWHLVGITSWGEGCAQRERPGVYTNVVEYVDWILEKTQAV
Sequence of factor XIa (P03951 19-387 partner limits assumed): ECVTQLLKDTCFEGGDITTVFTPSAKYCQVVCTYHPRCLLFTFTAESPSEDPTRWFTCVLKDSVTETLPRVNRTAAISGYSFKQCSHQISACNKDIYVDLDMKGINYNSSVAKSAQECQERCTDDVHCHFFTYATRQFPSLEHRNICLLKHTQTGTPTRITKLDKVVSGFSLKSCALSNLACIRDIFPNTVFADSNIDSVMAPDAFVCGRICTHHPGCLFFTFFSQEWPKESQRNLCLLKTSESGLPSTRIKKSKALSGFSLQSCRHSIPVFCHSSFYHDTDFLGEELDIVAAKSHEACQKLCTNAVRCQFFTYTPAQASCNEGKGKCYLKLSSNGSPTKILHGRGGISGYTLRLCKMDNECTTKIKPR
Sequence of plasmin (P00747 581-810 limits assumed): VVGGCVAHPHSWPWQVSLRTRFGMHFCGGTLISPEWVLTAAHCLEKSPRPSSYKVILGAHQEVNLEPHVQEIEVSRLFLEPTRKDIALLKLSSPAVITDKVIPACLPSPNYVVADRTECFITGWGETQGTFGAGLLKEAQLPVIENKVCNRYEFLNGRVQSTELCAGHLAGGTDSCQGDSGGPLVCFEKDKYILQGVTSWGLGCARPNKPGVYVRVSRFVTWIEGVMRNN
Sequence of plasmin (P00747 97-580 partner limits assumed): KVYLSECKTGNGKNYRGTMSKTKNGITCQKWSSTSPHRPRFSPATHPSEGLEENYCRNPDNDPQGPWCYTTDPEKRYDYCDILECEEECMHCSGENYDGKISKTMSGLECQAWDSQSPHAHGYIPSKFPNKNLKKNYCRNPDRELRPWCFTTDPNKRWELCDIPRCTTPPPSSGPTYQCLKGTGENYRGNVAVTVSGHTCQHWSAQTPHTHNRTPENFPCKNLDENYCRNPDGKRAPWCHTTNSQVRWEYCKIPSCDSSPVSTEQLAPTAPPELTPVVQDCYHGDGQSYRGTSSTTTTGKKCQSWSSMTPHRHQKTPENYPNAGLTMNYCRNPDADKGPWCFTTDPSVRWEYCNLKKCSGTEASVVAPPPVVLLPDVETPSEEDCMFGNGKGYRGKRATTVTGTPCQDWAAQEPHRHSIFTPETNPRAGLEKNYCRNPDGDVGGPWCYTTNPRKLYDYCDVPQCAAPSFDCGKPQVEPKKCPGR
Sequence of tissue kallikrein (KLK1) (P06870 25-262): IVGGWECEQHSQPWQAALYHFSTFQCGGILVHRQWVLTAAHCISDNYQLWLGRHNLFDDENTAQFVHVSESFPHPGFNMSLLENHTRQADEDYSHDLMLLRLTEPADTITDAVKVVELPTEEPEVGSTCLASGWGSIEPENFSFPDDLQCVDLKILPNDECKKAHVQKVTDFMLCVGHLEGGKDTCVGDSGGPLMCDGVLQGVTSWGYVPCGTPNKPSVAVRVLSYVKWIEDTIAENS
Sequence of factor Xa (P00742 235-488 limits assumed): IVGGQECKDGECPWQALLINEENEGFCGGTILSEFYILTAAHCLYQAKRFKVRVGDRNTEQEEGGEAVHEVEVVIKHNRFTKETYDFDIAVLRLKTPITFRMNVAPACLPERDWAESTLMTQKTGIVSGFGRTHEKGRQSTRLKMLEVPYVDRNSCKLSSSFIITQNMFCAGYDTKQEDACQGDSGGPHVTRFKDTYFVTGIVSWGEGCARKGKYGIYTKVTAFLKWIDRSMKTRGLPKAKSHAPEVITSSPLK
Sequence of factor Xa (P00742 41-179 partner limits assumed): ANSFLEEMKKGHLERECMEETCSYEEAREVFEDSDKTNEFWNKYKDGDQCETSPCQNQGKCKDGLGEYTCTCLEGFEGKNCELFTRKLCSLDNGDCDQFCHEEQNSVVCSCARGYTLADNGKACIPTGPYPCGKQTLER
Sequence of hERG channel (Q12809 whole entry): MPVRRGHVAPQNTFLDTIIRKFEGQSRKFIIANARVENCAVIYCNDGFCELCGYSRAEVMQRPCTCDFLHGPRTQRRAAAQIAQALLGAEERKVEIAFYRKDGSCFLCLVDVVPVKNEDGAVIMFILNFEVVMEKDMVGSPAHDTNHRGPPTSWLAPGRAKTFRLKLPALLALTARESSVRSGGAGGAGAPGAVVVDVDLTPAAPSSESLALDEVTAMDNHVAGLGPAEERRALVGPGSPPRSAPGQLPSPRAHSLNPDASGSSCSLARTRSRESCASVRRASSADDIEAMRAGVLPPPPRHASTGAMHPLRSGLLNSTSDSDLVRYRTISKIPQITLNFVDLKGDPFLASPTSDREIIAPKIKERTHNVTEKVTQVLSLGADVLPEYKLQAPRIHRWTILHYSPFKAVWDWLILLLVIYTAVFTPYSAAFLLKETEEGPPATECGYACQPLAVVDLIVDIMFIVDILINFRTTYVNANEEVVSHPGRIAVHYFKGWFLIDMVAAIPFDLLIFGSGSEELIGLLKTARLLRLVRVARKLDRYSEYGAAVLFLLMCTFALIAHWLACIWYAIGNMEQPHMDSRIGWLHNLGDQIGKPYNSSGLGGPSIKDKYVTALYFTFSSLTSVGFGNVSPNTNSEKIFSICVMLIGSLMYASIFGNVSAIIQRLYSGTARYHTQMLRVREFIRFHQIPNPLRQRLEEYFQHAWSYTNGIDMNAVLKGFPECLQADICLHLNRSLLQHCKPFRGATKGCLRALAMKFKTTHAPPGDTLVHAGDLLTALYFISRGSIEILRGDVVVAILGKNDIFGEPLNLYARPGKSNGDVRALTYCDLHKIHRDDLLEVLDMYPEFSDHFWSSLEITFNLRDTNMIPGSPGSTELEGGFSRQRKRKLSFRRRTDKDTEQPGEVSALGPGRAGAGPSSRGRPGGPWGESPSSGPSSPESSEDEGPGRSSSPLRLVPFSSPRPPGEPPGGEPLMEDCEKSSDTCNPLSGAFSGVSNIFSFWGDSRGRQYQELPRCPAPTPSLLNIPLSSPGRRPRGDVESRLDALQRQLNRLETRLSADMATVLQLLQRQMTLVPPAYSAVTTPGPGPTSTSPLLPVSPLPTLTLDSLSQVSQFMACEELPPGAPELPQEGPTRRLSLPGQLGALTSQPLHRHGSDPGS

Compound `Nc1nccc2cc(CNC(=O)c3cnn(Cc4ccc(Cn5ccccc5=O)cc4)c3)ccc12` [Compound 6, Nc1nccc2cc(ccc12)CNC(=O)c1cnn(c1)Cc1ccc(cc1)CN1C=CC=CC1=O] showed a microsomal CLint in series [1] of 37 µL/min/mg. This compound returned an apical-to-basolateral permeability (Papp A→B) in series [2] of 2 ×10⁻⁶ cm/s.

As for `COCc1nn(Cc2ccc(Cn3ccccc3=O)cc2)cc1C(=O)NCc1c(F)ccc(OC)c1F` [Compound 13b, COCc1nn(cc1C(=O)NCc1c(ccc(c1F)OC)F)Cc1ccc(cc1)CN1C=CC=CC1=O], the “kinetic sol 0.1 N HCl” value is greater than 0.12 mg/mL and the “kinetic sol aq assay buffer (pH 7.4)” value is listed as greater than 0.12 mg/mL. The “kinetics (in words)” value in [3] is reported as “fast kinetics”. In addition, the LLE in series [3] (lipophilic ligand efficiency) worked out at 5.4. The compound further showed a clearance at 24 h in series [4] of 11.5 mL/min/kg. In series [5], this compound returned a clearance at 24 h of 12.8 mL/min/kg.

Turning to `COCc1nn(Cc2ccc(Cn3ccccc3=O)cc2)cc1C(=O)NCc1cccc(OC)c1F` [Compound 13d, COCc1nn(cc1C(=O)NCc1cccc(c1F)OC)Cc1ccc(cc1)CN1C=CC=CC1=O], the “kinetic sol 0.1 N HCl” value is reported as greater than 0.12 mg/mL and the “kinetic sol aq assay buffer (pH 7.4)” value is on record as greater than 0.12 mg/mL.

Take `COc1cccc(CNC(=O)c2cn(Cc3ccc(Cn4ccccc4=O)cc3)nc2N(C)C)c1F` [Compound 13e, COc1cccc(c1F)CNC(=O)c1cn(nc1N(C)C)Cc1ccc(cc1)CN1C=CC=CC1=O]: the “kinetic sol 0.1 N HCl” value is on record as greater than 0.12 mg/mL and the “kinetic sol aq assay buffer (pH 7.4)” value was greater than 0.12 mg/mL.

Consider `COc1cccc(CNC(=O)c2cn(Cc3ccc(Cn4ccccc4=O)cc3)nc2C2CC2)c1F` [Compound 13f, COc1cccc(c1F)CNC(=O)c1cn(nc1C1CC1)Cc1ccc(cc1)CN1C=CC=CC1=O], for which the “kinetic sol 0.1 N HCl” value is recorded as greater than 0.11 mg/mL and the “kinetic sol aq assay buffer (pH 7.4)” value was 0.058–0.11 mg/mL. The LLE in series [3] (lipophilic ligand efficiency) is on record as 4.4.

Turning to `COCc1nn(Cc2ccc(Cn3ccccc3=O)cc2)cc1C(=O)NCc1cccc(O)c1F` [Compound 13g, COCc1nn(cc1C(=O)NCc1cccc(c1F)O)Cc1ccc(cc1)CN1C=CC=CC1=O], the “kinetic sol 0.1 N HCl” value is greater than 0.12 mg/mL and the “kinetic sol aq assay buffer (pH 7.4)” value was greater than 0.12 mg/mL.

Consider `CCc1cccc(CNC(=O)c2cn(Cc3ccc(Cn4ccccc4=O)cc3)nc2COC)c1F` [Compound 13h, CCc1cccc(c1F)CNC(=O)c1cn(nc1COC)Cc1ccc(cc1)CN1C=CC=CC1=O], for which the “kinetic sol aq assay buffer (pH 7.4)” value was greater than 0.12 mg/mL. The LLE in series [3] amounted to 3.7. The compound also registered a solubility (kinetic) in series [6] of 29 to 59 µg/mL (≈ 59.4 to 121 µM).

With `COCc1nn(Cc2ccc(Cn3ccccc3=O)cc2)cc1C(=O)NCc1cccc(OC(F)F)c1F` [Compound 13i, COCc1nn(cc1C(=O)NCc1cccc(c1F)OC(F)F)Cc1ccc(cc1)CN1C=CC=CC1=O], the “kinetic sol aq assay buffer (pH 7.4)” value is recorded as greater than 0.12 mg/mL. In [3], this compound registered an IC50 of 0.15 µM. Moreover, the LLE in series [3] (lipophilic ligand efficiency) is given as 4.2. The compound further came in with a kinetic solubility in [6] of 63 to 120 µg/mL (≈ 120 to 228 µM).

As for `COCc1nn(Cc2ccc(Cn3ccccc3=O)cc2)cc1C(=O)NCc1c(Cl)ccc(OC)c1F` [Compound 13j, COCc1nn(cc1C(=O)NCc1c(ccc(c1F)OC)Cl)Cc1ccc(cc1)CN1C=CC=CC1=O], the “kinetic sol 0.1 N HCl” value is listed as greater than 0.12 mg/mL and the “kinetic sol aq assay buffer (pH 7.4)” value is greater than 0.12 mg/mL.

`COCc1nn(Cc2ccc(Cn3ccccc3=O)cc2)cc1C(=O)NCc1c(C#N)ccc(OC)c1F` [Compound 13k, COCc1nn(cc1C(=O)NCc1c(c(ccc1C#N)OC)F)Cc1ccc(cc1)CN1C=CC=CC1=O]: the “kinetic sol 0.1 N HCl” value was greater than 0.12 mg/mL and the “kinetic sol aq assay buffer (pH 7.4)” value is given as greater than 0.12 mg/mL. In series [5], this compound registered a clearance at 24 h of 16 mL/min/kg.

Turning to `COCc1nn(Cc2ccc(Cn3ccccc3=O)cc2)cc1C(=O)NCc1cc(OC)ccc1F` [Compound 13l, COCc1nn(cc1C(=O)NCc1cc(ccc1F)OC)Cc1ccc(cc1)CN1C=CC=CC1=O], the “kinetic sol 0.1 N HCl” value is recorded as greater than 0.12 mg/mL and the “kinetic sol aq assay buffer (pH 7.4)” value was greater than 0.12 mg/mL.

With `COCc1nn(Cc2ccc(Cn3ccccc3=O)cc2)cc1C(=O)NCc1nccc(OC)c1C` [Compound 14s, COCc1nn(cc1C(=O)NCc1nccc(c1C)OC)Cc1ccc(cc1)CN1C=CC=CC1=O], the IC50 in series [7] is greater than 10 µM; in series [8], greater than 10 µM; in series [10] it was greater than 10 µM; in [11], 7.5 µM; in series [12] it was greater than 10 µM. The solubility at 4 h in [9] is greater than 100 µg/mL. The compound further returned a clearance at 24 h in series [5] of 14 mL/min/kg.

As to `COCc1nn(Cc2ccc(Cn3ccccc3=O)cc2)cc1C(=O)NCc1nccc(OC)c1F` [Compound 14w, 3-Methoxymethyl-1-[4-(2-oxo-2H-pyridin-1-ylmethyl)-benzyl]-1H-pyrazole-4-carboxylic Acid (3-Fluoro-4-methoxy-pyridin-2-ylmethyl)-amide], the “Non-GLP Ames” value in series [13] is reported as “no risk of genotoxicity”. Besides, the “kinetics (in words)” value in [3] is reported as “fast kinetics”. Moreover, the clearance at 24 h in [4] amounted to 8.7 mL/min/kg; in series [5], 11.7 mL/min/kg. The “inhibition of hERG channel (in words)” value in series [14] is “no significant inhibition”. Besides, the IC50 in series [15] is greater than 10 µM; in series [16], greater than 10 µM; in [16] (listed as Sebetralstat), greater than 40 µM; in [20] it was greater than 10 µM. The “CYP450 panel profile (in words)” value in series [17] is given as “clean profiles up to the highest concentration tested”. Moreover, in series [18], the “human plasma protein binding (PPB)” value came out at 77%. Moreover, in series [19], the pKa came out at 3.6.

As to `COc1ccnc(CNC(=O)c2cn(Cc3ccc(Cn4ccccc4=O)cc3)nc2C(F)(F)F)c1F` [Compound 16, COc1ccnc(c1F)CNC(=O)c1cn(nc1C(F)(F)F)Cc1ccc(cc1)CN1C=CC=CC1=O], the “kinetics (in words)” value in series [3] is reported as “fast kinetics”. The clearance at 24 h in series [4] is 10 mL/min/kg; in series [5] it was 7.1 mL/min/kg. The IC50 in series [16], in series [7], in series [8], in [10], in series [11] and in [12] was greater than 10 µM throughout. Besides, in series [17], the “CYP450 panel profile (in words)” value is recorded as “clean profiles up to the highest concentration tested”. For the same compound, the “human plasma protein binding (PPB)” value in [18] stood at 87%.

The values are drawn from publication PMC9620001 (Journal of Medicinal Chemistry, 2022).
